One data set is described as follows: MRI bladder phantom permeability assay (dialysis membrane in gelatin, spin-echo MRI). Format: physicochemical. The following applies: membrane 12-14 kD MW cutoff, 425 μM Gd-DTPA, 5 mM Ferumoxytol in lumen. An excerpt: FIG. 2 is a schematic of synthetic model system (an MRI “bladder phantom”) where membrane porosity and soft matter diffusivity can be controlled. The MRI bladder phantom, shown in FIG. 2, was constructed from clear polycarbonate cylindrical tubes having an outer diameter of 35 mm, a wall thickness of 4 mm, and a length of 90 mm. A sealed (70 mm length, 7 mm diameter) segment of a filled wet dialysis membrane was suspended in the center of each polycarbonate tube lumen and aligned with the tube length, during which a liquid solution (3.125% w/w) of hydrolyzed collagen was added to the lumen of the tube (but not the lumen of the dialysis membrane) and allowed to gel. The dialysis membrane porosity was 12-14 kD MW cutoff. The bladder phantom was placed in a standard mouse MRI RF coil for imaging on a 3-Tesla bench top MRI system with a bore diameter of 160 mm and a 70 mm field of view (MR Solutions, Surrey, UK). […]
This dark line is indicative of a lack of hydrogen nuclei in the liquid state where the dialysis membrane is located, a position that represents the luminal surface of the bladder. […] Since the entire lumen has an increased signal intensity, it is difficult to see without quantitative tools if the gadopentetate dimeglumine (Gd-DTPA) is diffusing into the gelatin an issue that becomes more relevant in a biological setting. […]
Consider `CNC[C@H](O)[C@@H](O)[C@H](O)[C@H](O)CO.CNC[C@H](O)[C@@H](O)[C@H](O)[C@H](O)CO.O=C([O-])CN(CCN(CC(=O)[O-])CC(=O)O)CCN(CC(=O)[O-])CC(=O)O.[Gd+3]` [Magnevist, Gadopentetate dimeglumine], for which the “diffusion across the dialysis membrane” value is reported as “porosity large enough to allow gadopentetate dimeglumine (Gd-DTPA) to pass”.

Assay in a further data set: not given
The settings on record: T1-reducing contrast agents, Table 1; cited from earlier work.
Take `O=C([O-])CN1CCN(CC(=O)[O-])CCN([C@H](CO)[C@H](O)CO)CCN(CC(=O)[O-])CC1.[Gd+3]` (racemic) [Gadovist, Gadobutrol]: the “Average Diameter” value is on record as 8 Å.

In the case of `O=C([O-])CN(CCN(CC(=O)[O-])CC(COP(=O)([O-])OC1CCC(c2ccccc2)(c2ccccc2)CC1)N(CC(=O)[O-])CC(=O)[O-])CC(=O)[O-].[Gd+3].[Na+].[Na+].[Na+]` (stereo not shown) [Ablavar, Gadofosveset trisodium], the “Average Diameter” value is on record as 10 Å.

For `CCOc1ccc(CC(CN(CCN(CC(=O)[O-])CC(=O)[O-])CC(=O)[O-])N(CC(=O)[O-])CC(=O)[O-])cc1.[Gd+3].[Na+].[Na+]` (stereo not shown) [Eovist, Gadoxetate Disodium], the “Average Diameter” value is given as 9 Å.

Turning to `CNC[C@H](O)[C@@H](O)[C@H](O)[C@H](O)CO.CNC[C@H](O)[C@@H](O)[C@H](O)[C@H](O)CO.O=C([O-])CN(CCN(CC(=O)[O-])CC(=O)O)CCN(CC(=O)[O-])CC(=O)O.[Gd+3]` [Magnevist, Gadopentetate dimeglumine], the “Average Diameter” value is reported as 10 Å.

On to `CNC[C@H](O)[C@@H](O)[C@H](O)[C@H](O)CO.CNC[C@H](O)[C@@H](O)[C@H](O)[C@H](O)CO.O=C([O-])CN(CCN(CC(=O)[O-])CC(=O)O)CCN(CC(=O)O)C(COCc1ccccc1)C(=O)[O-].[Gd+3]` (stereo not shown) [MultiHance, Gadobenate Dimeglumine], for which the “Average Diameter” value is 11 Å.

Turning to `CNC(=O)CN(CCN(CCN(CC(=O)[O-])CC(=O)NC)CC(=O)[O-])CC(=O)[O-].[Gd+3]` [Omniscan, Gadodiamide], the “Average Diameter” value was 8 Å.

As for `COCCNC(=O)CN(CCN(CCN(CC(=O)[O-])CC(=O)NCCOC)CC(=O)[O-])CC(=O)[O-].[Gd+3]` [OptiMARK, Gadoversetamide], the “Average Diameter” value was 8 Å.

Regarding `CC(O)CN1CCN(CC(=O)[O-])CCN(CC(=O)[O-])CCN(CC(=O)[O-])CC1.[Gd+3]` (stereo not shown) [ProHance, Gadoteridol], the “Average Diameter” value is 7 Å.

Turning to Gadoterate meglumine [Dotarem], the “Average Diameter” value is reported as 9 Å.
